The values that follow come from paper PMC4187505 (Journal of the American Heart Association: Cardiovascular …, 2014).

For data set [1], the target named is hlipocalin-2 (human lipocalin-2, neutrophil gelatinase-associated lipocalin) (Homo sapiens, UniProt P80188). Description: isothermal titration calorimetry. It is filed as binding. A general note: ITC needs no label: the signal is the heat of the interaction.
The data set “nonreducing SDS-PAGE” deals with the molecule itself. Description: nonreducing SDS-PAGE.

What is called Kd is a measure of binding affinity in units of concentration.

Sequence of hlipocalin-2 (human lipocalin-2, neutrophil gelatinase-associated lipocalin) (P80188 21-198): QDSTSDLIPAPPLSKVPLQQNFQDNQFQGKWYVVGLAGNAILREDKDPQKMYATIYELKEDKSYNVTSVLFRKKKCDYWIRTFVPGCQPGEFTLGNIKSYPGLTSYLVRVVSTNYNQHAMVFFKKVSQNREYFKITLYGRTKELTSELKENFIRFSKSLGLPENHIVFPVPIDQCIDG

Molecule `CCCCC/C=C\C/C=C\CCCCCCCC(=O)O` [linoleic acid] registered a Kd in data set [1] of 0.487 µM. This lies in the sub-micromolar range. Same read-out and setting: for `CCCCCCCC/C=C\CCCCCCCC(=O)O` [oleic acid] the value was 1470 µM.

B1: human lipocalin‐2 mutant C87A (cysteine 87 replaced by alanine) (natural protein, UniProt P80188 21-198, looked up)
chain: QDSTSDLIPAPPLSKVPLQQNFQDNQFQGKWYVVGLAGNAILREDKDPQKMYATIYELKEDKSYNVTSVLFRKKKCDYWIRTFVPGAQPGEFTLGNIKSYPGLTSYLVRVVSTNYNQHAMVFFKKVSQNREYFKITLYGRTKELTSELKENFIRFSKSLGLPENHIVFPVPIDQCIDG
modifications: contains a significantly lesser amount of polyamines than wild type
Consider B1, for which the ratio of homodimer/monomer in the data set “nonreducing SDS-PAGE” was > 10 homodimer/monomer.
